This note sets out measurements from US6914065B2, “Imidazo[1,2-C]pyrimidine derivatives as ligands for gaba receptors” (Merck Sharp & Dohme Ltd., priority 2000, dated 2005).

Consider `Cc1cc2ncc(-c3cccc(-c4ccccc4C#N)c3)n2cn1` [Example 1, 3′-(7-Methylimidazo[1,2-c]pyrimidin-3-yl)biphenyl-2-carbonitrile], for which the melting point (as a rule, the temperature, or range, at which the solid turns liquid) was determined as 119 °C.
